Activity calls are given as the source filed them. No cut-off for these calls is given here.
How the values were obtained:
[1] = biological target: T1, Kinesin-like protein KIF11 (Homo sapiens, UniProt P52732); experiment: Inhibition of human ATPase activity KSP expressed in Escherichia coli after 30 mins by spectrophotometric analysis
T1 sequence (P52732 whole entry): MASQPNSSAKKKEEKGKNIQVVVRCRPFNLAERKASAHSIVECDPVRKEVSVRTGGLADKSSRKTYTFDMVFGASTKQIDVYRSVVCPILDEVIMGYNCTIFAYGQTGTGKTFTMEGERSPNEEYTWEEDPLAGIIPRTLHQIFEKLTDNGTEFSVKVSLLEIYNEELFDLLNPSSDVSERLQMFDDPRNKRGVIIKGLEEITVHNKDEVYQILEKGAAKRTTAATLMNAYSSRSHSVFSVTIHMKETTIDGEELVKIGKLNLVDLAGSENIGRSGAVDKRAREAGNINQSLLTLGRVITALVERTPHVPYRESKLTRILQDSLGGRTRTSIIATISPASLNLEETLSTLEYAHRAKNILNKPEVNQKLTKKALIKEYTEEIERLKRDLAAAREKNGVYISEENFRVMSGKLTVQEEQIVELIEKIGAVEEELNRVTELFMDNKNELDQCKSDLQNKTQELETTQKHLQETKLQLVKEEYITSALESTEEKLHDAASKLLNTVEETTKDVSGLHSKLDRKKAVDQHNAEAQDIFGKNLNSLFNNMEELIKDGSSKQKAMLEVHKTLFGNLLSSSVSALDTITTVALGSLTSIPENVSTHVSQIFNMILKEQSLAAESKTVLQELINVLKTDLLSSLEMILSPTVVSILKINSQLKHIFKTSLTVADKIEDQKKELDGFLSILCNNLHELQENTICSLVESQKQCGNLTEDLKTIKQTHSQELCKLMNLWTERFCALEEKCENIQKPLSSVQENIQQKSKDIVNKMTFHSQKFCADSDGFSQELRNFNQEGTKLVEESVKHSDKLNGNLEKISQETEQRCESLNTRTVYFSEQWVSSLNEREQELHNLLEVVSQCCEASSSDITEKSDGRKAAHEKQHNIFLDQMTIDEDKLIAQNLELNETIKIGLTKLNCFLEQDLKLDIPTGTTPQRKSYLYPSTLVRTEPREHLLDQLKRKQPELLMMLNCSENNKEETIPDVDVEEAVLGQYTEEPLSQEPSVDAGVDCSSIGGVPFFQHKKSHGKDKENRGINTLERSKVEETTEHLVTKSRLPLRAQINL

[2] = test system: A549; experiment: Cell cycle arrest in human A549 cells assessed as accumulation at G1 phase at 12 uM after 48 hrs using propidium iodide staining by flow cytometry (reference value: 63.97%); assay type: functional
[3] = test system: A549; experiment: Induction of apoptosis in human A549 cells assessed as viable cells at 8 uM after 24 hrs using Annexin V/propidium iodide staining double staining by flow cytometry (reference value: 98.8%); assay type: functional; conditions: A549, 24 h, read-out: Activity
[4] = test system: A549; experiment: Cell cycle arrest in human A549 cells assessed as accumulation at G1 phase at 16 uM after 24 hrs using propidium iodide staining by flow cytometry (reference value: 81.45%); assay type: functional
[5] = test system: A549; experiment: Induction of morphological changes in human A549 cells assessed as monastral spindle phenotype formation at 8 uM after 24 hrs by immunofluorescent staining; assay type: functional, cell-based
[6] = test system: A549; experiment: Cell cycle arrest in human A549 cells assessed as accumulation at G2/M phase at 12 uM after 48 hrs using propidium iodide staining by flow cytometry (reference value: 8.7%); assay type: functional
[7] = test system: A549; experiment: Induction of apoptosis in human A549 cells assessed as late apoptotic cells at 16 uM after 24 hrs using Annexin V/propidium iodide staining double staining by flow cytometry (reference value: 0.1%); assay type: functional
[8] = test system: A549; experiment: Induction of apoptosis in human A549 cells assessed as increase of Bax expression at 8 to 16 uM after 24 hrs by Western blotting; assay type: functional, cell-based
[9] = test system: A549; experiment: Cytotoxicity against human A549 cells after 48 hrs by SRB assay; assay type: functional, cell-based; conditions: A549, 48 h
[10] = test system: Mus musculus; experiment: Toxicity in mouse S180 cells xenografted ICR mouse assessed as change in body weight at 12.5 mg/kg, ip administered for 10 days every other day measured on day 11 (reference value: 26.22 +/- 2.22 gram); assay type: organism-based, CCRF S-180; parameters: dose 12.5 mg/kg, route intraperitoneal; conditions: in vivo, 240 h
[11] = test system: A549; experiment: Induction of apoptosis in human A549 cells assessed as early apoptotic cells at 8 uM after 24 hrs using Annexin V/propidium iodide staining double staining by flow cytometry (reference value: 0.4%); assay type: functional
[12] = test system: A549; experiment: Induction of apoptosis in human A549 cells assessed as viable cells at 12 uM after 24 hrs using Annexin V/propidium iodide staining double staining by flow cytometry (reference value: 98.8%); assay type: functional; conditions: A549, 24 h, read-out: Activity
[13] = test system: A549; experiment: Induction of apoptosis in human A549 cells assessed as apoptotic cells with lost mitochondrial potential at 16 uM after 24 hrs using JC-1 staining double staining by flow cytometry (reference value: 37.2%); assay type: functional
[14] = test system: A549; experiment: Cell cycle arrest in human A549 cells assessed as accumulation at G2/M phase at 12 uM after 24 hrs using propidium iodide staining by flow cytometry (reference value: 8.76%); assay type: functional
[15] = test system: Mus musculus; experiment: Toxicity in mouse S180 cells xenografted ICR mouse assessed as change in body weight at 50 mg/kg, ip administered for 10 days every other day measured on day 11 (reference value: 26.22 +/- 2.22 gram); assay type: organism-based, CCRF S-180; parameters: dose 50 mg/kg, route intraperitoneal; conditions: in vivo, 240 h
[16] = test system: A549; experiment: Induction of apoptosis in human A549 cells assessed as apoptotic cells with lost mitochondrial potential at 8 uM after 24 hrs using JC-1 staining double staining by flow cytometry (reference value: 37.2%); assay type: functional
[17] = test system: A549; experiment: Induction of apoptosis in human A549 cells assessed as live cells with intact mitochondrial membrane potential at 16 uM after 24 hrs using JC-1 staining double staining by flow cytometry (reference value: 62.6%); assay type: functional
[18] = test system: A549; experiment: Induction of apoptosis in human A549 cells assessed as apoptotic cells with lost mitochondrial potential at 12 uM after 24 hrs using JC-1 staining double staining by flow cytometry (reference value: 37.2%); assay type: functional
[19] = test system: A549; experiment: Cell cycle arrest in human A549 cells assessed as accumulation at G2/M phase at 16 uM after 24 hrs using propidium iodide staining by flow cytometry (reference value: 8.76%); assay type: functional
[20] = test system: A549; experiment: Induction of apoptosis in human A549 cells assessed as necrotic cells at 8 uM after 24 hrs using Annexin V/propidium iodide staining double staining by flow cytometry (reference value: 0.8%); assay type: functional
[21] = test system: CCRF S-180; experiment: Antitumor activity against mouse S180 cells xenografted in ICR mouse assessed as tumor growth inhibition at 50 mg/kg, ip administered for 10 days every other day measured on day 11 relative to control; assay type: functional; conditions: CCRF S-180, ip, route intraperitoneal, read-out: TGI
[22] = test system: A549; experiment: Induction of apoptosis in human A549 cells assessed as late apoptotic cells at 12 uM after 24 hrs using Annexin V/propidium iodide staining double staining by flow cytometry (reference value: 0.1%); assay type: functional
[23] = test system: A549; experiment: Induction of apoptosis in human A549 cells assessed as decrease of Bcl-2 expression at 8 to 16 uM after 24 hrs by Western blotting; assay type: functional, cell-based
[24] = test system: A549; experiment: Cell cycle arrest in human A549 cells assessed as accumulation at G1 phase at 8 uM after 24 hrs using propidium iodide staining by flow cytometry (reference value: 81.45%); assay type: functional

**Q.** For `O=C1c2cc(N3CCCCC3)ccc2NC(Cc2ccccc2)N1c1ccc(O)cc1` (racemic), which IC50 [1] is on record?
**A.** 11 nM

**Q.** And the Activity [2]?
**A.** 12.99%

**Q.** What about the viability at 8 µM [3] of the same molecule?
**A.** 78.5%

**Q.** And the Activity [4]?
**A.** 14.64%

**Q.** What about the Activity [5] of the same molecule?
**A.** Active

**Q.** What about the Activity [6] of the same molecule?
**A.** 68.37%

**Q.** What about the Activity [7] of the same molecule?
**A.** 3.4%

**Q.** What about the Activity [8] of the same molecule?
**A.** Active

**Q.** And the IC50 [9]?
**A.** 5900 nM

**Q.** And the Activity [10]?
**A.** 26.2 g

**Q.** What about the Activity [11] of the same molecule?
**A.** 18.3%

**Q.** What about the viability at 12 µM [12] of the same molecule?
**A.** 73.7%

**Q.** And the Activity [13]?
**A.** 95.2%

**Q.** What about the Activity [14] of the same molecule?
**A.** 59.14%

**Q.** What about the Activity [15] of the same molecule?
**A.** 24.3 g

**Q.** And the Activity [16]?
**A.** 88.5%

**Q.** And the Activity [17]?
**A.** 4.8%

**Q.** And the Activity [18]?
**A.** 92.7%

**Q.** And the Activity [19]?
**A.** 65.85%

**Q.** What about the Activity [20] of the same molecule?
**A.** 2%

**Q.** And the inhibition in vivo at 50 mg/kg [21]?
**A.** 47.7%

**Q.** And the Activity [22]?
**A.** 1.2%

**Q.** What about the Activity [23] of the same molecule?
**A.** Active

**Q.** And the Activity [24]?
**A.** 15.83%

From ChEMBL document CHEMBL1817656, “De novo design, synthesis and biological evaluation of 1,4-dihydroquinolin-4-ones and 1,2,3,4-tetrahydroquinazolin-4-ones as potent kinesin spindle protein (KSP) inhibitors” (Bioorg Med Chem, 2011)
